From patent US4683198A, “Novel maltose dehydrogenase, process for its production, and analytical method using the same” (Toyo Jozo Kabushiki Kaisha, priority 1983, dated 1987)
Read-outs that look alike come from different tables or passages of the source.

Assays:
[1] = system: maltose dehydrogenase (acceptor); assay: Hydrogen acceptor (coenzyme) of maltose dehydrogenase (acceptor) in oxidation of maltose; format: biochemical, Staphylococcus sp. B-0875; parameters: Relative Activity (%): concentration or dose not given beside the values; settings: for Relative Activity (%): as hydrogen acceptor, Reaction pH 7.5, substrate maltose; for ability to act as hydrogen acceptor: oxidative reaction of maltose
Procedure: (§1) The above reaction mixture (1.0 ml) in a small test tube is pre-incubated at 37° C. Enzyme solution (10 μl) is added thereto and incubated at 37° C. for 10 min. The reaction is stopped by adding 0.1N HCl (2.0 ml) and the optical density at 550 nm (As) is measured. Distilled water (10 μl) is added as a control and the amount measured at 550 nm (Ab).
Hydrogen acceptor (coenzyme) of maltose dehydrogenase (acceptor) in the oxidative reaction (dehydrogenation) of maltose is measured according to the assay method. Maltose dehydrogenase (acceptor) of the present invention requires no NAD or NADP as a coenzyme. A decrease in soluble oxygen is observed at least whwn PMS, 1-methoxy-phenazine methosulfate (MPMS) or meldola blue is used as a hydrogen acceptor.

[2] = system: maltose dehydrogenase (acceptor); assay: Effect of surface-active agents on enzyme activity; format: biochemical, Staphylococcus sp. B-0875; settings: Concentration 0.1%, in place of 0.2% Triton X-100; no addition = 100
Procedure: as §1
Surface active agents as in Table 5 are added one at a time to aliquots of the reaction mixture as in the assay method, in place of 0.2% Triton X-100, and the enzyme activity is measured.

[3] = system: maltose dehydrogenase (acceptor); assay: Substrate specificity of maltose dehydrogenase (acceptor), PMS/NTB assay at 550 nm; format: biochemical, Staphylococcus sp. B-0875; settings: substrate each 0.1M, 0.1 ml, in place of maltose; 37° C., 10 min
Procedure: 20 mM phosphate buffer (pH 7.5)
0.1% bovine serum albumin
0.025% nitrotetrazolium blue (NTB)
0.001% phenazine methosulfate (PMS: hydrogen acceptor)
as §1
One unit is defined by the amount of enzyme which oxidizes (dehydrogenates)1 μmole of maltose in one minute and enzyme activity is calculated by the following equation: [formula]
Maltose in the above assay method is replaced by the substrates in Table 2 (each 0.1M, 0.1 ml) and assayed according to the above assay method.

serum amylase = assay: Serum amylase assay with different hydrogen acceptors (Example 12); format: biochemical; settings: 0.002% hydrogen acceptor; human serum 20 μl; 37° C.; absorbancy at 550 nm
Procedure: 40 mM phosphate buffer pH 7.0
maltose dehydrogenase (acceptor) (16.7 U/ml)
Human serun (20 μl) was added to the reaction mixture hereinabove (the hydrogen acceptor is shown in Table 6), and the material was incubated at 37° C. for 5 mins. Reaction mixture II (0.4 ml) was added thereto and the material was incubated at 37° C. Changes in absorbancy at 550 nm were measured. The results are shown in Table 6, from which it will be seen that serum amylase can be measured whatever the hydrogen acceptor.

[4] = system: maltose dehydrogenase (acceptor); format: biochemical, Staphylococcus sp. B-0875
Procedure: as §1
Metallic ions, EDTA or KCN shown in Table 4 is added to the reaction mixture as in the assay method, and the effect thereof is measured. The results are shown in […]

[5] = system: maltose dehydrogenase (acceptor); assay: Km value, substrate concentration-reaction rate relation; format: biochemical, Staphylococcus sp. B-0875; settings: approximate, calculated according to FIG. 5; no linear Lineweaver-Burk plot
Description: Under the experimental conditions, Vmax cannot be determined and no linear Lineweaver-Burk plot can be obtained.

[6] = 1.0 mM additive in reaction mixture, no addition = 100

CN(C)c1ccc2nc3ccc(=[N+](C)C)cc-3sc2c1 [methylene blue]
Relative Activity (%) [1]: 0%

Tween-80
Relative Activity (%) [2]: 104%

C[C@H](CCC(=O)O)[C@H]1CC[C@H]2[C@@H]3[C@H](O)C[C@@H]4C[C@H](O)CC[C@]4(C)[C@H]3C[C@H](O)[C@]12C [Sodium cholate]
Relative Activity (%) [2]: 86%

NC(=O)c1ccc[n+]([C@@H]2O[C@H](COP(=O)([O-])OP(=O)(O)OC[C@H]3O[C@@H](n4cnc5c(N)ncnc54)[C@H](OP(=O)(O)O)[C@@H]3O)[C@@H](O)[C@H]2O)c1 [NADP, nicotine adenine dinucleotide phosphate]
Relative Activity (%) [1]: 0%

Triton X-100
Relative Activity (%) [2]: 115%

O=C1C(Cl)=CC(=Nc2ccc(O)cc2)C=C1Cl [2,6-dichlorophenolindophenol]
ability to act as hydrogen acceptor [1]: can also be a hydrogen acceptor

O=C[C@@H](O)[C@@H](O)[C@H](O)[C@H](O)CO [mannose]
Relative Activity (%) [3]: 52.4%

COc1cc(-c2ccc(-[n+]3nc(-c4ccccc4)nn3-c3ccc([N+](=O)[O-])cc3)c(OC)c2)ccc1-[n+]1nc(-c2ccccc2)nn1-c1ccc([N+](=O)[O-])cc1 [NTB, nitrotetrazolium blue]
Relative Activity (%) [1]: 0%

C[n+]1c2ccccc2nc2ccccc21 [PMS, phenazine methosulfate]
Relative Activity (%) [1]: 100% | Relative Amylase Activity (serum amylase): 100%

Span-85
Relative Activity (%) [2]: 103%

[Cl-].[Cl-].[Zn+2] [ZnCl2]
Relative Activity (%) [4, 6]: 4.5%

O=C(O)CN(CCN(CC(=O)O)CC(=O)O)CC(=O)O [EDTA]
Relative Activity (%) [4]: 73%

Sodium laurylbenzene sulfate
Relative Activity (%) [2]: 0.2%

OC[C@H]1O[C@H](O[C@H]2[C@H](O)[C@@H](O)[C@@H](O[C@H]3[C@H](O)[C@@H](O)C(O)O[C@@H]3CO)O[C@@H]2CO)[C@H](O)[C@@H](O)[C@@H]1O (stereo partly drawn) [maltotriose]
Relative Activity (%) [3]: 77.4%

CC(=O)Nc1cccc2c1nc1ccccc1[n+]2C [1-acetamide-phenazine methosulfate]
ability to act as hydrogen acceptor [1]: can also be a hydrogen acceptor | Relative Amylase Activity (serum amylase): 103%

OC[C@H]1O[C@@](CO)(O[C@H]2O[C@H](CO)[C@@H](O)[C@H](O)[C@H]2O)[C@@H](O)[C@@H]1O [sucrose]
Relative Activity (%) [3]: 0%

OC[C@H]1O[C@H](O[C@H]2[C@H](O)[C@@H](O)[C@@H](O[C@H]3[C@H](O)[C@@H](O)[C@@H](O[C@H]4[C@H](O)[C@@H](O)[C@@H](O[C@H]5[C@H](O)[C@@H](O)C(O)O[C@@H]5CO)O[C@@H]4CO)O[C@@H]3CO)O[C@@H]2CO)[C@H](O)[C@@H](O)[C@@H]1O (stereo partly drawn) [maltopentaose]
Relative Activity (%) [3]: 36.4%

[Cl][Cu][Cl] [CuCl2]
Relative Activity (%) [4, 6]: 0%

[Cl-].[Li+] [LiCl]
Relative Activity (%) [4, 6]: 95%

[Ba+2].[Cl-].[Cl-] [BaCl2]
Relative Activity (%) [4, 6]: 61.2%

O[C@H]1[C@H](O)[C@@H](O)[C@H](O)[C@@H](O)[C@H]1O [inositol]
Relative Activity (%) [3]: 0%

COc1cccc2c1nc1ccccc1[n+]2C [MPMS, 1-methoxy-phenazine methosulfate]
Relative Activity (%) [1]: 30% | Relative Amylase Activity (serum amylase): 102%

CCCCCCCCCCCCCCCC(=O)N(C)CC(=O)[O-].[Na+] [Sarcosinate PN]
Relative Activity (%) [2]: 114%

C[N+](C)=c1ccc2nc3c(ccc4ccccc43)oc-2c1 [meldola blue, 9-dimethylaminobenzophenazoxonium chloride]
Relative Activity (%) [1]: 20% | Relative Amylase Activity (serum amylase): 97.4%

OC[C@H]1O[C@H](O[C@H]2[C@H](O)[C@@H](O)[C@@H](O[C@H]3[C@H](O)[C@@H](O)[C@@H](O[C@H]4[C@H](O)[C@@H](O)[C@@H](O[C@H]5[C@H](O)[C@@H](O)[C@@H](O[C@H]6[C@H](O)[C@@H](O)[C@@H](O[C@H]7[C@H](O)[C@@H](O)C(O)O[C@@H]7CO)O[C@@H]6CO)O[C@@H]5CO)O[C@@H]4CO)O[C@@H]3CO)O[C@@H]2CO)[C@H](O)[C@@H](O)[C@@H]1O (stereo partly drawn) [maltoheptaose]
Relative Activity (%) [3]: 22.4%

OC[C@H]1O[C@H](OC[C@H]2O[C@H](O[C@]3(CO)O[C@H](CO)[C@@H](O)[C@@H]3O)[C@H](O)[C@@H](O)[C@@H]2O)[C@H](O)[C@@H](O)[C@H]1O [raffinose]
Relative Activity (%) [3]: 0%

O=C[C@H](O)[C@@H](O)[C@H](O)CO [xylose]
Relative Activity (%) [3]: 53.7%

CCO [ethanol]
Relative Activity (%) [3]: 0%

[Cl-].[Cl-].[Mg+2] [MgCl2]
Relative Activity (%) [4, 6]: 106%

OC[C@H]1O[C@@H](O[C@H]2[C@H](O)[C@@H](O)C(O)O[C@@H]2CO)[C@H](O)[C@@H](O)[C@H]1O (stereo partly drawn) [lactose]
Relative Activity (%) [3]: 58.2%

OC[C@H]1O[C@H](O[C@H]2[C@H](O)[C@@H](O)[C@@H](O[C@H]3[C@H](O)[C@@H](O)[C@@H](O[C@H]4[C@H](O)[C@@H](O)C(O)O[C@@H]4CO)O[C@@H]3CO)O[C@@H]2CO)[C@H](O)[C@@H](O)[C@@H]1O (stereo partly drawn) [maltotetraose]
Relative Activity (%) [3]: 60.3%

CCCCCCCCCCCCOS(=O)(=O)O [SDS]
Relative Activity (%) [2]: 3.8%

CCCCCCCCCCCCCCCC[N+](C)(C)C.[Cl-] [Cetyl trimethylammonium chloride]
Relative Activity (%) [2]: 94%

OC[C@H]1O[C@H](O[C@H]2[C@H](O)[C@@H](O)[C@H](O)O[C@@H]2CO)[C@H](O)[C@@H](O)[C@@H]1O [β-maltose]
Km [5]: 1360 µM

O=C[C@H](O)[C@@H](O)[C@@H](O)[C@H](O)CO [galactose]
Relative Activity (%) [3]: 56.1%

OC[C@H]1O[C@H](O[C@H]2[C@H](O)[C@@H](O)[C@H](O)O[C@@H]2CO)[C@H](O)[C@@H](O)[C@@H]1O [maltose]
Relative Activity (%) [3]: 100% | Km [5]: ~3800 µM

[Ca+2].[Cl-].[Cl-] [CaCl2]
Relative Activity (%) [4, 6]: 101%

OCC(O)CO [glycerol]
Relative Activity (%) [3]: 0%

NC(=O)c1ccc[n+]([C@@H]2O[C@H](COP(=O)([O-])OP(=O)(O)OC[C@H]3O[C@@H](n4cnc5c(N)ncnc54)[C@H](O)[C@@H]3O)[C@@H](O)[C@H]2O)c1 [NAD, nicotine adenine dinucleotide]
Relative Activity (%) [1]: 0%

OC[C@@H](O)[C@@H](O)[C@H](O)[C@@H](O)CO [sorbitol]
Relative Activity (%) [3]: 0%

[N-]=[N+]=[N-].[Na+] [NaN3]
Relative Activity (%) [4, 6]: 95%

O=C(CO)[C@@H](O)[C@H](O)[C@H](O)CO [fructose]
Relative Activity (%) [3]: 31.4%

[Cl][Mn][Cl] [MnCl2]
Relative Activity (%) [4, 6]: 13.4%

OC[C@H]1O[C@H](O[C@H]2[C@H](O)[C@@H](O)[C@@H](O[C@H]3[C@H](O)[C@@H](O)[C@@H](O[C@H]4[C@H](O)[C@@H](O)[C@@H](O[C@H]5[C@H](O)[C@@H](O)[C@@H](O[C@H]6[C@H](O)[C@@H](O)C(O)O[C@@H]6CO)O[C@@H]5CO)O[C@@H]4CO)O[C@@H]3CO)O[C@@H]2CO)[C@H](O)[C@@H](O)[C@@H]1O (stereo partly drawn) [maltohexaose]
Relative Activity (%) [3]: 28.6%

[Cl-].[Cl-].[Co+2] [CoCl2]
Relative Activity (%) [4, 6]: 17.9%

O=C[C@H](O)[C@@H](O)[C@H](O)[C@H](O)CO [glucose]
Relative Activity (%) [3]: 80.0%
